The values that follow come from ChEMBL document CHEMBL1144514, “The design, synthesis, and biological evaluation of novel substituted purines as HIV-1 Tat-TAR inhibitors” (Bioorg Med Chem, 2007).

Data set [1] is described as follows: Selectivity index, ratio of EC50 for SIV infected CEM174 cells to TC50 for CEM174 cells. It is filed as functional.
Data set [2] deals with Simian immunodeficiency virus. The data set can be described thus: Inhibition of SIV-induced cytopathogenicity in CEM174 cells. It is filed as functional, organism-based. (Protection from cytopathic effect is a common read-out in antiviral testing.)
Data set [3] can be described thus: Cytotoxicity against CEM174 cells. Type of data set: cell-based. To be noted: human, read-out: TC50 (the source's name).
Another data set relates to 293T. Nature of the data set: Inhibition of Tat-mediated transactivation in human 293T cells assessed as CAT expression at 30 uM. Type of data set: cell-based. The note with it: Human immunodeficiency virus 1.

In general, EC50 refers to the concentration at which the effect is half-maximal. Read a high EC50 as weaker potency. For orientation: inhibition means the drop in the measured response relative to a control, in per cent.

Each structure is given as a SMILES string.

`CCN(CC)CC[n+]1c(SCC(=O)NCCCN)[nH]c2c(C)nc(N(CC)CC)nc21`: the Selectivity index in data set [1] is on record as above 71.4. For the same compound, in data set [2], the EC50 was determined as 1.4 µM. Moreover, the CC50 in data set [3] was above 100 µM. Moreover, the inhibition with 293T amounted to 43.3%.

In the case of `CCN(CC)CC[n+]1c(SCC(=O)NCCNC(=N)N)[nH]c2c(C)nc(N(CC)CC)nc21`, the Selectivity index in data set [1] is listed as above 142.9. Also, in data set [2], the half-maximal effective concentration (EC50) turned out to be 0.7 µM. In data set [3], the CC50 was above 100 µM. Also, the inhibition in the data set with 293T is 34.9%.

In the case of `CCN(CC)c1nc(C)c2[nH]c(SCC(=O)NCCNC(=N)N)nc2n1`, in data set [1], the Selectivity index was above 23.8. Moreover, in data set [2], the half-maximal effective concentration (EC50) is 4.2 µM. Moreover, the CC50 in data set [3] is above 100 µM. Also, the inhibition in the data set with 293T is 57.1%.

Regarding `CCN(CC)c1nc(C)c2[nH]c(SCC(=O)NCCCNC(=N)N)[n+](CCCN(C)C)c2n1`, in data set [1], the Selectivity index is given as above 31.25. For the same compound, in data set [2], the EC50 was 3.2 µM. Also, in data set [3], the CC50 is above 100 µM. The inhibition in the data set on 293T turned out to be 48.8%.

On to `CCN(CC)c1nc(C)c2[nH]c(SCC(=O)NCCNC(=N)N)[n+](CCCN(C)C)c2n1`, for which the Selectivity index in data set [1] is above 13.9. For the same compound, it took 7.2 µM to reach a half-maximal effect in data set [2] (EC50). Further, in data set [3], the CC50 is above 100 µM. The inhibition in the data set with 293T was 50.2%.

Turning to `CCN(CC)CC[n+]1c(SCC(=O)NCCN)[nH]c2c(C)nc(N(CC)CC)nc21`, the Selectivity index in data set [1] was found to be 40.2. For the same compound, the half-maximal effective concentration (EC50) in data set [2] amounted to 1.3 µM. In data set [3], the CC50 amounted to 52.2 µM. Also, the inhibition in the data set with 293T came out at 43.1%.

For `CCN(CC)c1nc(C)c2[nH]c(SCC(=O)NCCCNC(=N)N)nc2n1`, in data set [1], the Selectivity index was above 142.9. In data set [2], this compound came in with a 50% effective concentration (EC50) of 0.7 µM. Moreover, the CC50 in data set [3] is above 100 µM. In the data set on 293T, the inhibition stood at 57.1%.

For `Cc1cn([C@H]2C[C@H](N=[N+]=[N-])[C@@H](CO)O2)c(=O)[nH]c1=O` [ZIDOVUDINE], the response in data set [2] was half-maximal at 0.0122 µM (EC50). Moreover, the CC50 in data set [3] was above 100 µM.

With `CCN(CC)c1nc(C)c2[nH]c(SCC(=O)NCCN)[n+](CCCN(C)C)c2n1`, the Selectivity index in data set [1] was above 29.4. In data set [2], this compound had an EC50 of 3.4 µM. For the same compound, the CC50 in data set [3] was above 100 µM. The inhibition in the data set with 293T was 57.7%.

Consider `CCN(CC)c1nc(C)c2[nH]c(SCC(=O)NCCCN)nc2n1`, for which, in data set [1], the Selectivity index is above 200. Also, a half-maximal effect in data set [2] (EC50) was put at 0.5 µM. In addition, the CC50 in data set [3] is above 100 µM. Besides, the inhibition with 293T stood at 58.4%.

For the compound `CCN(CC)c1nc(C)c2[nH]c(SCC(=O)NCCCN)[n+](CCCN(C)C)c2n1`, the Selectivity index in data set [1] is above 500. The same compound had an EC50 in data set [2] of 0.2 µM. The CC50 in data set [3] is above 100 µM. Besides, the inhibition in the data set on 293T stood at 48.7%.

Regarding `CCN(CC)CC[n+]1c(SCC(=O)NCCCNC(=N)N)[nH]c2c(C)nc(N(CC)CC)nc21`, the Selectivity index in data set [1] is reported as above 21.3. For the same compound, in data set [2], a half-maximal response (EC50) required 4.7 µM. Also, the CC50 in data set [3] was above 100 µM. The inhibition with 293T is 36.2%.

In the case of `CCN(CC)c1nc(C)c2[nH]c(SCC(=O)NCCN)nc2n1`, the Selectivity index in data set [1] is above 50. In addition, a half-maximal effect in data set [2] (EC50) was put at 2 µM. Also, in data set [3], the CC50 is above 100 µM. Also, in the data set on 293T, the inhibition came to 65.7%.
